Where “and” joins values, the source holds several entries; their conditions need not be identical. Identical values can stand only once.
Key:
Test in all cases: MIC, broth microdilution (NCCLS M7-A5)
Type in all cases: cell-based
[1] = test system: S. epidermidis - ATCC 700578; set-up: Staph Epi 700578 MIC: unit not given here; details: Table 4; averages of 2 experiments, * single experiment; both values given when differing >2 fold
Procedure: (§1) Minimum inhibitory concentrations (MICs) are determined according to the National Committee for Clinical Laboratory Standards (NCCLS) susceptibility test guideline M7-A5 (Ferraro, M. 2001 Methods for Dilution Antimicrobial Susceptibility Tests for Bacteria that Grow Aerobically; Approved Standard (NCCLS). National Committee for Clinical Laboratory Standards (NCCLS), Villanova) to quantify the antimicrobial activity of the compounds of the present embodiment against various pathogenic bacteria. Susceptibility testing is performed by broth microdilution in accordance with National Committee for Clinical Laboratory Standards (NCCLS) guidelines. This procedure entails combining the test compounds with a standardized number of cells, incubating at the temperature and amount of time appropriate for each particular organism, and visually scoring the concentration at which no growth was apparent in the test wells. The panel includes both drug sensitive and drug resistant isolates of both gram-positive and gram-negative bacteria, including: S. aureus (both MSSA and MRSA), S. pneumoniae (wild type and penicillin-resistant), vancomycin-sensitive E. faecalis, vancomycin-resistant E. faecium, E. coli, H. influenzae and P. aeruginosa.
(§2) Susceptibility testing was performed by broth microdilution in accordance with National Committee for Clinical Laboratory Standards (NCCLS) guidelines. Antimicrobial data for compounds of Formulae II, III, IV, VI, VII, VIII, IX, XII, XIII, XIV, XV′, XV, XVI, XVII, XVIII, XXI′, XXII, XXIII, XXIV, and XXV are shown in Tables 3, 4 and 5.

[2] = test system: S. epidermidis - ATCC 700582; set-up: Staph Epi 700582 MIC: unit not given here; details: Table 4; averages of 2 experiments, * single experiment; both values given when differing >2 fold
Procedure: as §1, §2

E. coli - imp = details: Table 5
Procedure: as §1, §2

[3] = test system: E. faecium - Van^r (VRE 700221); details: Table 4, averages of 2 experiments, * single experiment, both values given when differing >2 fold
Procedure: as §1, §2

[4] = test system: H. influenzae - ATCC 49247; details: Table 4 (MIC); averages of 2 experiments, * single experiment; both values given when differing >2 fold
Procedure: as §1, §2

[5] = test system: H. influenzae - ATCC 49766; details: Table 4 (MIC); averages of 2 experiments, * single experiment; both values given when differing >2 fold
Procedure: as §1, §2

S. aureus - MRSA (43300) = details: Table 4; averages of 2 experiments, * single experiment; both values given when differing >2 fold; in µg/mL
Procedure: as §1, §2

S. aureus - MSSA (29213) = details: Table 4; averages of 2 experiments, * single experiment; both values given when differing >2 fold; in µg/mL
Procedure: as §1, §2

[6] = test system: S. pneumoniae - penicillin resistant (51915); details: Table 4; averages of 2 experiments, * single experiment; both values given when differing >2 fold; in µg/mL
Procedure: as §1, §2

[7] = test system: S. pneumoniae - penicillin sensitive (49619); details: Table 4; averages of 2 experiments, * single experiment; both values given when differing >2 fold; in µg/mL
Procedure: as §1, §2

[8] = test system: E. faecalis - Van^s (VSE 29212); set-up: VSE 29212 MIC: unit not given here; details: Table 4; averages of 2 experiments, * single experiment; both values given when differing >2 fold
Procedure: as §1, §2

Row | SMILES | Staph Epi 700578 MIC [1] | Staph Epi 700582 MIC [2] | E. coli imp MIC (E. coli - imp) [µg/mL] | VRE 700221 MIC ([3]; in µg/mL) | H. inf. 49247 [4] | H. inf. 49766 [5] | MRSA 43300 MIC (S. aureus - MRSA (43300)) | MSSA 29213 MIC (S. aureus - MSSA (29213)) | S. pneumo 51915 Pen R MIC [6] | S. pneumo 49619 Pen. S MIC [7] | VSE 29212 MIC [8] | VRE 700221 MIC [3]
1 | O=C(O)c1[nH]cc(-c2c[nH]c3ccc(Cl)cc23)c1-c1c[nH]c2ccc(Cl)cc12 [VII] | 16* | 16* | >32 | >32* | >32* | >32* | 16* | 12* | >32* | >32* | >32* | 
2 | COC(=O)c1[nH]c(C(=O)OC)c(-c2c[nH]c3ccc(F)cc23)c1-c1c[nH]c2ccc(F)cc12 [XVIII] | 16* | 16* | >32 | >32* | >32* | >32* | 12* | 8* | >32* | >32* | >32* | 
3 | COC(=O)c1[nH]c(C(=O)OC)c(-c2c[nH]c3ncccc23)c1-c1c[nH]c2ccc(Cl)cc12 [XIII] | 8* | 8* | >32 | 32* | >32* | >32* | 4* | 3* | >32* | >32* | 16* | 
4 | COC(=O)c1[nH]c(C(=O)OC)c(-c2c[nH]c3cc(F)ccc23)c1-c1c[nH]c2ccccc12 [XXV] | 8* | 8* | >32 | >32* | 8* | 16* | 8* | 4* | >32* | 32* | >32* | 
5 | COC(=O)c1[nH]c(C(=O)OC)c(-c2c[nH]c3cc(F)c(Cl)cc23)c1-c1c[nH]c2ccc(Cl)cc12 [XXII] | 2.5 | 2 | >32 |  |  | 4 | 1.5 | 1.25 | 32 | 32 | 6 | 16 and > 32
6 | O=C(O)c1[nH]c(C(=O)O)c(-c2c[nH]c3ccc(Cl)cc23)c1-c1c[nH]c2ccc(Cl)cc12 [VIII] | >16 | >16 | >16 | >16 | >16 | >16 | >16 | >16 | >16 | >16 | >16 | 
7 | COC(=O)c1[nH]cc(-c2c[nH]c3cc(Cl)c(F)cc23)c1-c1c[nH]c2ccc(F)cc12 [XXIV] | 2* | 2* | 8 | 8* | 16* | 16* | 1.5* | 1* | 16* | 23* | 4* | 

Source: patent US7166634B2, “Bis-indole pyrroles useful as antimicrobials agents” (Nereus Pharmaceuticals, Inc., priority 2004, dated 2007)
